Data reported in patent publication US9428504B2, “7-hydroxy-spiropipiperidine indolinyl antagonists of P2Y1 receptor” (BRISTOL-MYERS SQUIBB COMPANY, priority 2012, dated 2016).
Counter-ions that a name gives are not always drawn. Like-named read-outs stand apart in the source and are kept apart here.

What was measured:
[1] = molecular target: T1, cloned human P2Y1 receptors (Homo sapiens (Human), UniProt P47900); assay: Binding Assay A: membrane binding assay, [33P] 2MeS-ADP
Description: A membrane binding assay was used to identify inhibitors of [^33P] […] The cDNA clone for human P2Y1 was obtained from Incyte Pharmaceuticals and its sequence confirmed by established techniques (for a compendium of techniques used see Ausubel, F. et al. Current Protocols in Molecular Biology, John Wiley and Sons, NY, N.Y. (1995)). The essential coding sequences were subcloned into pCDNA 3.1 (Invitrogen) to produce a P2Y1 expression construct. This construct was then transfected into the human embryonic kidney cell line HEK-293 and stable transfectants selected in GENETICIN® (G418 sulfate; Life Technologies). […] Membranes were prepared by growing HEK293 #49 in 150 mm dishes in DMEM/10% FBS in the presence of 1 mg/ml G418 until cells were 80-90% confluent. Plates were then washed with cold (4° C.) D-PBS twice and cells harvested by scraping into 10 mL D-PBS. Cells were pelleted by centrifugation (1,000 g, 10 min, 4° C.) and the resulting pellet resuspended in Lysis Buffer (10 mM Tris (7.4), 5 mM MgCl2 containing Complete protease inhibitor cocktail (Roche Cat #1873580) as recommended by the manufacturer). The suspension was then homogenized in a Dounce homogenizer (10-15 strokes; B pestle, on ice) and the homogenate spun at 1,000 g, 4° C., 5 min to pellet large debris. The supernatant was centrifuged at 150,000 g, 4° C., for 1 hour and the resulting membrane pellet resuspended in 0.5-1 mL of Buffer B (15 mM HEPES (7.4), 145 mM NaCl, 0.1 mM MgCl2, 5 mM EDTA, 5 mM KCl) and stored at −70° C. until used.
Binding reactions were performed in WGA FLASHPLATE®s (PerkinElmer Life Sciences, Cat # SMP105A) in a volume of 200 μL containing ˜45 fmol of P2Y1 receptor (5 μg of total protein), 0.5 nM [^33P] […] Reactions were allowed to proceed to completion at room temperature for 1 hour and then the aqueous solution aspirated. Plates were sealed and the residual [^33P] bound to the plate determined by scintillation counting.

[2] = tested on: human platelet rich plasma (PRP); assay: ADP induced platelet aggregation assay
Description: The ability of P2Y1 antagonists covered in the present invention to inhibit platelet aggregation induced by 10 μM ADP was tested using human platelet rich plasma (PRP) as described in Platelet Protocols: Research and Clinical Laboratory Procedures (White, M. M. et al., Academic Press (1999)). Human blood was collected in 30 μM (final concentration in blood) argatroban (GSK) as the anticoagulant at a ratio of 1 ml per 9 ml of blood. The PRP was isolated by centrifugation at 170 g for 12 minutes. The platelet poor plasma (PPP) was used as the blank for optical aggregometry. Compounds of the present invention in DMSO solution was preincubated with 250 μl PRP at 37° C. for 1 minute with stirring speed of 1000 rpm. Aggregation was initiated by addition of 2.5 μl of 1 mM ADP (Chrono-log, Havertown, Pa.) for a final ADP concentration of 10 μM. Platelet aggregation was monitored using Optical Aggregometer (Chrono-log, Havertown, Pa.) and the area under the curve (AUC) at 5 minute was measured. IC50 was calculated using vehicle control as 0% inhibition.

[3] = molecular target: T1, cloned human P2Y1 receptors; assay: Binding Assay B: Scintillation Proximity Assay (SPA) for P2Y1 binding; conditions: SPA, [33P] 2MeS-ADP displacement; read-out: P2Y1 Ki (nM) using binding assay B
Summary of the method: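 Membranes with ~15 fmol receptor (1.7 μg total protein) incubated with 0.3 nM [^33P]-labelled radioligand for 1 h at room temperature to completion. After centrifugation and removal of aqueous phase, bound radioactivity read by scintillation proximity; inhibition of radioligand binding measured.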

[4] = values marked *, WGA FlashPlate, [33P] 2MeS-ADP displacement, read-out: P2Y1 Ki (nM) *Using binding assay A
[5] = Homo sapiens, Platelet, read-out: PA IC50 (μM) @ 10 μM ADP, platelet aggregation induced by 10 μM ADP, human PRP

T1 sequence (P47900 whole entry): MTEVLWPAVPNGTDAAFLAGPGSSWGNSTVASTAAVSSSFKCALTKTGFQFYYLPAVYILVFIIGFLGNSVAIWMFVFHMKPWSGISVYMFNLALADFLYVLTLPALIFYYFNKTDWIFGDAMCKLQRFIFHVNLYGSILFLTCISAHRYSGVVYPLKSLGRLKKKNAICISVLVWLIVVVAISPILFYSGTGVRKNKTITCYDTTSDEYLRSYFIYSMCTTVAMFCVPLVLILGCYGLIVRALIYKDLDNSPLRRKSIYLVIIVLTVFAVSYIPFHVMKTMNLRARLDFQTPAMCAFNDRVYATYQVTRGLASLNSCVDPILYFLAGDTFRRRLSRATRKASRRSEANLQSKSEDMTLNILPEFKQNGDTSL

| Structure (SMILES) | Ki [1, 4] [nM] | IC50 [2, 5] [µM] | Ki [1] [nM] | IC50 ([2]; read-out: PA IC50 (μM) @ 10 μM ADP, platelet aggregation induced by 10 μM ADP, human PRP) [µM] | Ki [3] [nM] |
| --- | --- | --- | --- | --- | --- |
| CC(C)c1nsc(NC(=O)Nc2ccccc2N2CC3(CCN(CC(C)(C)C)CC3)c3c(F)ccc(O)c32)n1 [Example 35, 1-(2-(4-Fluoro-7-hydroxy-1′-neopentylspiro[indoline-3,4′-piperidine]-1-yl)phenyl)-3-(3-isopropyl-1,2,4-thiadiazol-5-yl)urea] | 1.9 | 0.3 |  |  |  |
| CC(C)(C)CN1CCC2(CC1)CN(c1ncccc1NC(=O)Nc1ccc(C(C)(C)C)cc1)c1c(O)ccc(C(F)(F)F)c12 [Example 13, 1-(4-tert-Butylphenyl)-3-(2-(7-hydroxy-1′-neopentyl-4-(trifluoromethyl)spiro[indoline-3,4′-piperidine]-1-yl)pyridin-3-yl)urea] | 3.3 | 0.5 |  |  |  |
| CC(C)(C)CN1CCC2(CC1)CN(c1ccccc1NC(=O)Nc1nc3ccc(Cl)cc3s1)c1c(O)cccc12 [Example 75, 1-(6-Chlorobenzo[d]thiazol-2-yl)-3-(2-(7-hydroxy-1′-neopentylspiro [indoline-3,4′-piperidine]-1-yl)phenyl)urea] | 7.5 | 0.4 |  |  |  |
| CC(C)N1CCC2(CC1)CN(c1ncccc1NC(=O)Nc1ccc(OC(F)(F)F)cc1)c1ccccc12 [Comparator 3, reference compound] | 5300 |  |  |  |  |
| CC(C)(C)CN1CCC2(CC1)CN(c1ccccc1NC(=O)Nc1nc3ccc(Cl)nc3s1)c1c(O)ccc(Cl)c12 [Example 167, 1-(2-(4-Chloro-7-hydroxy-1′-neopentylspiro[indoline-3,4′-piperidine]-1-yl)phenyl)-3-(5-chlorothiazolo[5,4-b]pyridin-2-yl)urea, methanesulfonic acid salt] |  |  | 3.3 | 0.5 |  |
| Cc1ccc2nc(NC(=O)Nc3ccccc3N3CC4(CCN(CC(C)(C)C)CC4)c4c(F)ccc(O)c43)sc2c1 [Example 34, 1-(2-(7-Hydroxy-4-fluoro-1′-neopentylspiro[indoline-3,4′-piperidine]-1-yl)phenyl)-3-(6-methylbenzo[d]thiazol-2-yl)urea] | 3.7 | 0.5 |  |  |  |
| CC(C)(C)CN1CCC2(CC1)CN(c1ccccc1NC(=O)Nc1nc3ccc(Cl)cc3s1)c1c(O)ccc(F)c12 [Example 33, 1-(2-(7-Hydroxy-4-fluoro-1′-neopentylspiro[indoline-3,4′-piperidine]-1-yl)phenyl)-3-(6-chlorobenzo[d]thiazol-2-yl)urea] | 3.7 | 0.4 |  |  |  |
| CC(C)c1nsc(NC(=O)Nc2ccccc2N2CC3(CCN(CC(C)(C)C)CC3)c3c(Cl)ccc(O)c32)n1 [Example 43, 1-(2-(4-Chloro-7-hydroxy-1′-neopentylspiro[indoline-3,4′-piperidine]-1-yl)phenyl)-3-(3-isopropyl-1,2,4-thiadiazol-5-yl)urea] | 4.4 | 0.3 |  |  |  |
| Cc1nsc(NC(=O)Nc2ccccc2N2CC3(CCN(CC(C)(C)C)CC3)c3c(Cl)ccc(O)c32)n1 [Example 42, 1-(2-(4-Chloro-7-hydroxy-1′-neopentylspiro[indoline-3,4′-piperidine]-1-yl)phenyl)-3-(3-methyl-1,2,4-thiadiazol-5-yl)urea] | 3.3 | 0.3 |  |  |  |
| CC(C)CN1CCC2(CC1)CN(c1ccccc1NC(=O)Nc1ccc(OC(F)(F)F)cc1)c1ccccc12 [Comparator 2, reference compound] | 20.2 | 8.8 |  |  |  |
| CC(C)c1nsc(NC(=O)Nc2ccccc2N2CC3(CCN(CC(C)(C)C)CC3)c3c(C(F)(F)F)ccc(O)c32)n1 [Example 19, 1-(2-(7-Hydroxy-1′-neopentyl-4-(trifluoromethyl)spiro[indoline-3,4′-piperidine]-1-yl)phenyl)-3-(3-isopropyl-1,2,4-thiadiazol-5-yl)urea] |  | 0.2 |  |  | 7.5 |
| Cc1ccc2nc(NC(=O)Nc3ccccc3N3CC4(CCN(CC(C)(C)C)CC4)c4c(Cl)ccc(O)c43)sc2c1 [Example 40, 1-(2-(4-Chloro-7-hydroxy-1′-neopentylspiro[indoline-3,4′-piperidine]-1-yl)phenyl)-3-(6-methylbenzo[d]thiazol-2-yl)urea] |  | 0.5 |  |  | 5.6 |
| COc1ccc2nc(NC(=O)Nc3ccccc3N3CC4(CCN(CC(C)(C)C)CC4)c4c(C(F)(F)F)ccc(O)c43)sc2c1 [Example 108, 1-(2-(7-Hydroxy-1′-neopentyl-4-(trifluoromethyl)spiro [indoline-3,4′-piperidin]-1-yl)phenyl)-3-(6-methoxybenzo [d]thiazol-2-yl)urea] |  | 0.2 |  |  | 14.5 |
| COc1nsc(NC(=O)Nc2ccccc2N2CC3(CCN(CC(C)(C)C)CC3)c3c(Cl)ccc(O)c32)n1 [Example 50, 1-(2-(4-Chloro-7-hydroxy-1′-neopentylspiro[indoline-3,4′-piperidine]-1-yl)phenyl)-3-(3-methoxy-1,2,4-thiadiazol-5-yl)urea, TFA] |  | 0.3 |  |  | 6.8 |
| CC(C)(C)CN1CCC2(CC1)CN(c1ccccc1NC(=O)Nc1ccc(OC(F)(F)F)cc1)c1c(O)ccc(-c3nc4ccc(Br)cc4s3)c12 [Example 121, 1-(2-(4-(6-Bromobenzo[d]thiazol-2-yl)-7-hydroxy-1′-neopentylspiro[indoline-3,4′-piperidin]-1-yl)phenyl)-3-(4-(trifluoromethoxy)phenyl)urea] |  | 0.4 |  |  | 45.6 |
| CC(C)(C)CN1CCC2(CC1)CN(c1ccccc1NC(=O)Nc1nc3c(s1)CCC3)c1c(O)ccc(Cl)c12 [Example 46, 1-(2-(4-Chloro-7-hydroxy-1′-neopentylspiro[indoline-3,4′-piperidine]-1-yl)phenyl)-3-(5,6-dihydro-4H-cyclopenta[d]thiazol-2-yl)urea, TFA] |  | 0.3 |  |  | 6.2 |
| CC(C)(C)CN1CCC2(CC1)CN(c1ccccc1NC(=O)Nc1nc3ccc(Cl)nc3s1)c1c(O)cc(F)c(Cl)c12 [Example 101, 1-(2-(4-Chloro-5-fluoro-7-hydroxy-1′-neopentylspiro [indoline-3,4′-piperidin]-1-yl)phenyl)-3-(5-chlorothiazolo[5,4-b]pyridin-2-yl)urea] |  | 0.9 |  |  | 12.2 |
| CCN(CC)S(=O)(=O)c1ccc(O)c2c1C1(CCN(CC(C)(C)C)CC1)CN2c1ccccc1NC(=O)Nc1nc2ccc(Cl)cc2s1 [Example 92, 1-(2-(3-(6-Chlorobenzo[d]thiazol-2-yl)ureido)phenyl)-N,N-diethyl-7-hydroxy-1′-neopentylspiro[indoline-3,4′-piperidine]-4-sulfonamide] |  | 0.5 |  |  | 15.8 |
| Cc1ccc(NC(=O)Nc2ccccc2N2CC3(CCN(CC(C)(C)C)CC3)c3c(Cl)ccc(O)c32)cc1F [Example 56, 1-(2-(4-Chloro-7-hydroxy-1′-neopentylspiro[indoline-3,4′-piperidine]-1-yl)phenyl)-3-(3-fluoro-4-methylphenyl)urea] |  | 0.5 |  |  | 6.4 |
| CC(C)(C)CN1CCC2(CC1)CN(c1cc(F)ccc1NC(=O)Nc1nc3ccc(F)cc3s1)c1c(O)ccc(Cl)c12 [Example 67, 1-(2-(4-Chloro-7-hydroxy-1′-neoopentylspiro[indoline-3,4′-piperidine]-1-yl)-4-fluorophenyl)-3-(6-fluorobenzo[d]thiazol-2-yl)urea] |  | 0.3 |  |  | 22.2 |
| CC(C)(C)CN1CCC2(CC1)CN(c1ccccc1NC(=O)Nc1nc3c(s1)COCC3)c1c(O)ccc(Cl)c12 [Example 48, 1-(2-(4-Chloro-7-hydroxy-1′-neopentylspiro[indoline-3,4′-piperidine]-1-yl)phenyl)-3-(6,7-dihydro-4H-pyrano[4,3-d]thiazol-2-yl)urea, TFA] |  | 0.4 |  |  | 8 |
| CCSc1nsc(NC(=O)Nc2ccccc2N2CC3(CCN(CC(C)(C)C)CC3)c3c(C(F)(F)F)ccc(O)c32)n1 [Example 16, 1-(3-(Ethylthio)-1,2,4-thiadiazol-5-yl)-3-(2-(7-hydroxy-1′-neopentyl-4-(trifluoromethyl)spiro[indoline-3,4′-piperidine]-1-yl)phenyl)urea] |  | 0.3 |  |  | 8.1 |
| CCSc1nsc(NC(=O)Nc2ccccc2N2CC3(CCN(CC(C)(C)C)CC3)c3c(Cl)ccc(O)c32)n1 [Example 44, 1-(2-(4-Chloro-7-hydroxy-1′-neopentylspiro[indoline-3,4′-piperidine]-1-yl)phenyl)-3-(3-(ethylthio)-1,2,4-thiadiazol-5-yl)urea] |  | 0.1 |  |  | 7.3 |
